System: human skin explants
Test: Colouring effect on human skin explants under survival conditions (ex vivo model)
Format: cell-based
Conditions: 72 hours, C-Cube Dermoscope colorimetric differences, four donors
Experimental: Owing to the lack of cell and animal pharmacological models, the inventors developed an ex vivo model in order to overcome the difficulties related to absorption of the active agents. Indeed, there is no absorption of crocin without intestinal hydrolysis first and low assimilation of crocetin and of these derivatives after passage.
The objective of this study was to evaluate the colouring effect of various extracts applied to human skin explants under survival conditions over 72 hours. Maintenance under survival conditions is carried out in 6-well culture plates containing culture medium. These culture plates are placed in an incubator at 37° C. with 5% CO2. The studies were carried out on four donors.
The colouring of each medium containing active agents or control is evaluated with the C-Cube Dermoscope (Clinical Edition) from Pixience SAS. The evaluation concerns the maximum colouring which can be obtained, i.e., the 100% level on the colour mapping scale relating to each active agent. The colouring of each explant is measured using the C-Cube Dermoscope (Clinical Edition). First, the explant is placed in a solution of medium with no active agent in order to rinse the explant of the active agent molecules present on the explant surface and which have not penetrated the skin. […]

## CC(/C=C/C=C(\C)C(=O)O)=C\C=C\C=C(C)\C=C\C=C(/C)C(=O)O [crocetin]
  colouring strength: high colouring strength
